Laboratory results reported in patent US8802597B2, “Herbicidal pyrimidines” (E I du Pont de Nemours and Company, priority 2003, dated 2014).

What was measured:
Test in all cases: Test C pre/postemergence
Assay type in all cases: in vivo
[1] = system: johnsongrass (Sorghum halepense); settings: for Plant response rating, Johnsongrass: Preemergence
Summary of the method: (§1)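 We sprayed seeded pots preemergence and 2–18 cm seedlings postemergence with test chemicals in a non-phytotoxic solvent mixture including surfactant. Greenhouse plants were visually compared with untreated controls at 12 to 14 days and scored 0 (no effect) to 100 (complete control).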

[2] = system: common ragweed (Ambrosia elatior); settings: for Plant response rating (scale of 0 to 100), Ragweed / Ragweed plant response rating: Postemergence; for Ragweed plant response rating: scale 0 to 100 (0 no effect, 100 complete control); for Plant response rating, Ragweed: Preemergence
Summary of the method: as §1

kochia (Kochia scoparia) = settings: for Plant response rating (scale of 0 to 100), Kochia / Kochia plant response rating: Postemergence; for Kochia plant response rating: scale 0 to 100 (0 no effect, 100 complete control); for Plant response rating, Kochia: Preemergence
Summary of the method: as §1

[3] = system: common (oilseed) sunflower (Helianthus annuus); settings: Preemergence
Summary of the method: as §1

[4] = system: velvetleaf (Abutilon theophrasti); settings: for Plant response rating (scale of 0 to 100), Velvetleaf / Velvetleaf plant response rating: Postemergence; for Velvetleaf plant response rating: scale 0 to 100 (0 no effect, 100 complete control); for Plant response rating, Velvetleaf: Preemergence
Summary of the method: as §1

[5] = system: cocklebur (Xanthium strumarium); settings: for Plant response rating (scale of 0 to 100), Cocklebur / Cocklebur plant response rating: Postemergence; for Cocklebur plant response rating: scale 0 to 100 (0 no effect, 100 complete control); for Plant response rating, Cocklebur: Preemergence
Summary of the method: as §1

soybean (Glycine max) = settings: for Plant response rating (scale of 0 to 100), Soybean / Soybean plant response rating: Postemergence; for Soybean plant response rating: scale 0 to 100 (0 no effect, 100 complete control); for Plant response rating, Soybean: Preemergence
Summary of the method: as §1

[6] = system: goosegrass (Eleusine indica); settings: for Plant response rating (scale of 0 to 100), Goosegrass / Goosegrass plant response rating: Postemergence; for Goosegrass plant response rating: scale 0 to 100 (0 no effect, 100 complete control); for Plant response rating, Goosegrass: Preemergence
Summary of the method: as §1

[7] = system: bermudagrass (Cynodon dactylon)
Summary of the method: as §1

[8] = system: pigweed (Amaranthus retroflexus); settings: for Plant response rating (scale of 0 to 100), Pigweed / Pigweed plant response rating: Postemergence; for Pigweed plant response rating: scale 0 to 100 (0 no effect, 100 complete control); for Plant response rating, Pigweed: Preemergence
Summary of the method: as §1

[9] = system: lambsquarters (Chenopodium album); settings: for Plant response rating (scale of 0 to 100), Lambsquarters / Lambsquarters plant response rating: Postemergence; for Lambsquarters plant response rating: scale 0 to 100 (0 no effect, 100 complete control); for Plant response rating, Lambsquarters: Preemergence
Summary of the method: as §1

[10] = system: eastern black nightshade (Solanum ptycanthum); settings: Preemergence
Summary of the method: as §1

[11] = Postemergence, 62 g ai/ha, scale 0 to 100 (0 no effect, 100 complete control)
[12] = 16 g ai/ha, scale 0 to 100, 0 no effect, 100 complete control
[13] = 31 g ai/ha, scale 0 to 100, 0 no effect, 100 complete control
[14] = 62 g ai/ha, scale 0 to 100, 0 no effect, 100 complete control

Question: Which “Plant response rating (scale of 0 to 100), Johnsongrass” value ([1]; Postemergence, 16 g ai/ha) does the source give for `COC(=O)c1nc(C2CC2)nc(N=CN(C)C)c1Br` [Compound 19] here?
Answer: 0

Question: What about the “Plant response rating (scale of 0 to 100), Johnsongrass” value ([1]; Postemergence, 31 g ai/ha) of the same molecule?
Answer: 0

Question: And the “Johnsongrass plant response rating” value [1, 11]?
Answer: 0

Question: And the “Plant response rating, Johnsongrass” value [1, 12]?
Answer: 0

Question: And the “Plant response rating, Johnsongrass” value [1, 13]?
Answer: 0

Question: What about the “Plant response rating, Johnsongrass” value [1, 14] of the same molecule?
Answer: 35

Question: And the “Plant response rating, Johnsongrass” value ([1]; 125 g ai/ha, scale 0 to 100)?
Answer: 55

Question: And the “Plant response rating (scale of 0 to 100), Ragweed” value ([2]; 16 g ai/ha)?
Answer: 35

Question: And the “Plant response rating (scale of 0 to 100), Ragweed” value ([2]; 31 g ai/ha)?
Answer: 40

Question: And the “Ragweed plant response rating” value ([2]; 62 g ai/ha)?
Answer: 70

Question: What about the “Ragweed plant response rating” value ([2]; 125 g ai/ha) of the same molecule?
Answer: 80

Question: What about the “Plant response rating, Ragweed” value [2, 12] of the same molecule?
Answer: 55

Question: What about the “Plant response rating, Ragweed” value [2, 13] of the same molecule?
Answer: 55

Question: What about the “Plant response rating, Ragweed” value [2, 14] of the same molecule?
Answer: 70

Question: And the “Plant response rating, Ragweed” value ([2]; 125 g ai/ha, scale 0 to 100)?
Answer: 80

Question: And the “Plant response rating (scale of 0 to 100), Kochia” value (kochia (Kochia scoparia); 16 g ai/ha)?
Answer: 80

Question: And the “Plant response rating (scale of 0 to 100), Kochia” value (kochia (Kochia scoparia); 31 g ai/ha)?
Answer: 90

Question: And the “Kochia plant response rating” value (kochia (Kochia scoparia); 62 g ai/ha)?
Answer: 90

Question: What about the “Kochia plant response rating” value (kochia (Kochia scoparia); 125 g ai/ha) of the same molecule?
Answer: 90

Question: What about the “Plant response rating, Kochia” value (kochia (Kochia scoparia); [12]) of the same molecule?
Answer: 35

Question: And the “Plant response rating, Kochia” value (kochia (Kochia scoparia); [14])?
Answer: 85

Question: And the “Plant response rating, Kochia” value (kochia (Kochia scoparia); 125 g ai/ha, scale 0 to 100)?
Answer: 90

Question: What about the “Plant response rating, Sunflower” value [3, 12] of the same molecule?
Answer: 10

Question: And the “Plant response rating, Sunflower” value [3, 13]?
Answer: 25

Question: What about the “Plant response rating, Sunflower” value [3, 14] of the same molecule?
Answer: 70

Question: And the “Plant response rating, Sunflower” value ([3]; 125 g ai/ha, scale 0 to 100)?
Answer: 90

Question: What about the “Plant response rating (scale of 0 to 100), Velvetleaf” value ([4]; 16 g ai/ha) of the same molecule?
Answer: 30

Question: What about the “Plant response rating (scale of 0 to 100), Velvetleaf” value ([4]; 31 g ai/ha) of the same molecule?
Answer: 40

Question: What about the “Velvetleaf plant response rating” value ([4]; 62 g ai/ha) of the same molecule?
Answer: 50

Question: And the “Velvetleaf plant response rating” value ([4]; 125 g ai/ha)?
Answer: 60

Question: And the “Plant response rating, Velvetleaf” value [4, 12]?
Answer: 25

Question: And the “Plant response rating, Velvetleaf” value [4, 13]?
Answer: 35

Question: What about the “Plant response rating, Velvetleaf” value [4, 14] of the same molecule?
Answer: 40

Question: What about the “Plant response rating, Velvetleaf” value ([4]; 125 g ai/ha, scale 0 to 100) of the same molecule?
Answer: 65

Question: What about the “Plant response rating (scale of 0 to 100), Cocklebur” value ([5]; 16 g ai/ha) of the same molecule?
Answer: 25

Question: And the “Plant response rating (scale of 0 to 100), Cocklebur” value ([5]; 31 g ai/ha)?
Answer: 25

Question: And the “Cocklebur plant response rating” value ([5]; 62 g ai/ha)?
Answer: 50

Question: And the “Cocklebur plant response rating” value ([5]; 125 g ai/ha)?
Answer: 90

Question: And the “Plant response rating, Cocklebur” value [5, 12]?
Answer: 15

Question: And the “Plant response rating, Cocklebur” value [5, 13]?
Answer: 30

Question: And the “Plant response rating, Cocklebur” value [5, 14]?
Answer: 65

Question: And the “Plant response rating, Cocklebur” value ([5]; 125 g ai/ha, scale 0 to 100)?
Answer: 80

Question: And the “Plant response rating (scale of 0 to 100), Soybean” value (soybean (Glycine max); 16 g ai/ha)?
Answer: 45

Question: And the “Plant response rating (scale of 0 to 100), Soybean” value (soybean (Glycine max); 31 g ai/ha)?
Answer: 55

Question: And the “Soybean plant response rating” value (soybean (Glycine max); 62 g ai/ha)?
Answer: 75

Question: And the “Soybean plant response rating” value (soybean (Glycine max); 125 g ai/ha)?
Answer: 75

Question: And the “Plant response rating, Soybean” value (soybean (Glycine max); [12])?
Answer: 0

Question: And the “Plant response rating, Soybean” value (soybean (Glycine max); [13])?
Answer: 25

Question: And the “Plant response rating, Soybean” value (soybean (Glycine max); [14])?
Answer: 85

Question: What about the “Plant response rating, Soybean” value (soybean (Glycine max); 125 g ai/ha, scale 0 to 100) of the same molecule?
Answer: 90

Question: What about the “Plant response rating (scale of 0 to 100), Goosegrass” value ([6]; 16 g ai/ha) of the same molecule?
Answer: 0

Question: And the “Plant response rating (scale of 0 to 100), Goosegrass” value ([6]; 31 g ai/ha)?
Answer: 0

Question: What about the “Goosegrass plant response rating” value ([6]; 62 g ai/ha) of the same molecule?
Answer: 0

Question: And the “Goosegrass plant response rating” value ([6]; 125 g ai/ha)?
Answer: 0

Question: And the “Plant response rating, Goosegrass” value [6, 12]?
Answer: 0

Question: What about the “Plant response rating, Goosegrass” value [6, 13] of the same molecule?
Answer: 0

Question: And the “Plant response rating, Goosegrass” value [6, 14]?
Answer: 0

Question: What about the “Plant response rating, Goosegrass” value ([6]; 125 g ai/ha, scale 0 to 100) of the same molecule?
Answer: 0

Question: What about the “Plant response rating (scale of 0 to 100), Bermudagrass” value ([7]; Postemergence, 16 g ai/ha) of the same molecule?
Answer: 0

Question: And the “Plant response rating (scale of 0 to 100), Bermudagrass” value ([7]; Postemergence, 31 g ai/ha)?
Answer: 5

Question: And the “Bermudagrass plant response rating” value [7, 11]?
Answer: 30

Question: And the “Plant response rating, Bermudagrass” value ([7]; Postemergence, 125 g ai/ha, scale 0 to 100)?
Answer: 45

Question: And the “Plant response rating, Bermudagrass” value ([7]; Preemergence, 16 g ai/ha, scale 0 to 100, 0 no effect, 100 complete control)?
Answer: 0

Question: What about the “Plant response rating, Bermudagrass” value ([7]; Preemergence, 31 g ai/ha, scale 0 to 100, 0 no effect, 100 complete control) of the same molecule?
Answer: 0

Question: And the “Plant response rating, Bermudagrass” value ([7]; Preemergence, 62 g ai/ha, scale 0 to 100, 0 no effect, 100 complete control)?
Answer: 0

Question: What about the “Plant response rating, Bermudagrass” value ([7]; Preemergence, 125 g ai/ha, scale 0 to 100) of the same molecule?
Answer: 0

Question: And the “Plant response rating (scale of 0 to 100), Pigweed” value ([8]; 16 g ai/ha)?
Answer: 50

Question: What about the “Plant response rating (scale of 0 to 100), Pigweed” value ([8]; 31 g ai/ha) of the same molecule?
Answer: 50

Question: What about the “Pigweed plant response rating” value ([8]; 62 g ai/ha) of the same molecule?
Answer: 65

Question: What about the “Pigweed plant response rating” value ([8]; 125 g ai/ha) of the same molecule?
Answer: 65

Question: What about the “Plant response rating, Pigweed” value [8, 12] of the same molecule?
Answer: 35

Question: And the “Plant response rating, Pigweed” value [8, 13]?
Answer: 45

Question: And the “Plant response rating, Pigweed” value [8, 14]?
Answer: 70

Question: What about the “Plant response rating, Pigweed” value ([8]; 125 g ai/ha, scale 0 to 100) of the same molecule?
Answer: 95

Question: And the “Plant response rating (scale of 0 to 100), Lambsquarters” value ([9]; 16 g ai/ha)?
Answer: 70

Question: What about the “Plant response rating (scale of 0 to 100), Lambsquarters” value ([9]; 31 g ai/ha) of the same molecule?
Answer: 90

Question: And the “Lambsquarters plant response rating” value ([9]; 62 g ai/ha)?
Answer: 90

Question: And the “Lambsquarters plant response rating” value ([9]; 125 g ai/ha)?
Answer: 95

Question: What about the “Plant response rating, Lambsquarters” value [9, 12] of the same molecule?
Answer: 75

Question: And the “Plant response rating, Lambsquarters” value [9, 13]?
Answer: 100

Question: What about the “Plant response rating, Lambsquarters” value [9, 14] of the same molecule?
Answer: 100

Question: What about the “Plant response rating, Lambsquarters” value ([9]; 125 g ai/ha, scale 0 to 100) of the same molecule?
Answer: 100

Question: And the “Plant response rating, Nightshade” value [10, 12]?
Answer: 0

Question: What about the “Plant response rating, Nightshade” value [10, 13] of the same molecule?
Answer: 40

Question: What about the “Plant response rating, Nightshade” value [10, 14] of the same molecule?
Answer: 100

Question: What about the “Plant response rating, Nightshade” value ([10]; 125 g ai/ha, scale 0 to 100) of the same molecule?
Answer: 100
